Key:
[1] = target: Activin receptor type-1 (Homo sapiens) (UniProt Q04771); conditions: Compound concentration 1000.0 nM
[2] = target: Mitogen-activated protein kinase 6 (Homo sapiens) (UniProt Q16659); conditions: Compound concentration 1000.0 nM
[3] = target: Serine/threonine-protein kinase VRK2 (Homo sapiens) (UniProt Q86Y07); conditions: Compound concentration 1000.0 nM
[4] = target: Cyclin-dependent kinase 17 (Homo sapiens) (UniProt Q00537); conditions: Compound concentration 1000.0 nM
[5] = target: Mitogen-activated protein kinase 8 (Homo sapiens) (UniProt P45983); conditions: Compound concentration 1000.0 nM
[6] = target: Ribosomal protein S6 kinase alpha-6 (Homo sapiens) (UniProt Q9UK32); conditions: Compound concentration 1000.0 nM
[7] = target: Tyrosine-protein kinase Fyn (Homo sapiens) (UniProt P06241); conditions: Compound concentration 1000.0 nM
[8] = target: Ephrin type-A receptor 7 (Homo sapiens) (UniProt Q15375); conditions: Compound concentration 1000.0 nM
[9] = target: Casein kinase II subunit alpha (Homo sapiens) (UniProt P68400); conditions: Compound concentration 1000.0 nM
[10] = target: Activin receptor type-2B (Homo sapiens) (UniProt Q13705); conditions: Compound concentration 1000.0 nM
[11] = target: Mitogen-activated protein kinase kinase kinase 9 (Homo sapiens) (UniProt P80192); conditions: Compound concentration 1000.0 nM
[12] = target: Eukaryotic translation initiation factor 2-alpha kinase 1 (Homo sapiens) (UniProt Q9BQI3); conditions: Compound concentration 1000.0 nM
[13] = tested on: Epidermal growth factor receptor (Homo sapiens), P00533 [G719S]; conditions: Compound concentration 1000.0 nM
[14] = target: Sodium-dependent dopamine transporter (Homo sapiens) (UniProt Q01959); conditions: Compound concentration 10.0 uM
[15] = tested on: Receptor-type tyrosine-protein kinase FLT3 (Homo sapiens), P36888 [N841I]; conditions: Compound concentration 1000.0 nM
[16] = target: Serine/threonine-protein kinase Nek11 (Homo sapiens) (UniProt Q8NG66); conditions: Compound concentration 1000.0 nM
[17] = target: Receptor-interacting serine/threonine-protein kinase 4 (Homo sapiens) (UniProt P57078); conditions: Compound concentration 1000.0 nM
[18] = target: Tyrosine-protein kinase ZAP-70 (Homo sapiens) (UniProt P43403); conditions: Compound concentration 1000.0 nM
[19] = target: Death-associated protein kinase 2 (Homo sapiens) (UniProt Q9UIK4); conditions: Compound concentration 1000.0 nM
[20] = target: Serine/threonine-protein kinase TAO1 (Homo sapiens) (UniProt Q7L7X3); conditions: Compound concentration 1000.0 nM
[21] = target: Calcium/calmodulin-dependent protein kinase type 1B (Homo sapiens) (UniProt Q6P2M8); conditions: Compound concentration 1000.0 nM
[22] = target: Ephrin type-A receptor 6 (Homo sapiens) (UniProt Q9UF33); conditions: Compound concentration 1000.0 nM
[23] = target: Ribosomal protein S6 kinase alpha-2 (Homo sapiens) (UniProt Q15349); conditions: Compound concentration 1000.0 nM
[24] = target: Serine/threonine-protein kinase 32B (Homo sapiens) (UniProt Q9NY57); conditions: Compound concentration 1000.0 nM
[25] = target: Dual specificity protein kinase CLK1 (Homo sapiens) (UniProt P49759); conditions: Compound concentration 1000.0 nM
[26] = tested on: Tyrosine-protein kinase ABL1 (Homo sapiens), P00519 [Q252H]; conditions: Compound concentration 1000.0 nM
[27] = target: Inhibitor of nuclear factor kappa-B kinase subunit epsilon (Homo sapiens) (UniProt Q14164); conditions: Compound concentration 1000.0 nM
[28] = target: Vascular endothelial growth factor receptor 3 (Homo sapiens) (UniProt P35916); conditions: Compound concentration 1000.0 nM
[29] = target: Serine/threonine-protein kinase Nek5 (Homo sapiens) (UniProt Q6P3R8); conditions: Compound concentration 1000.0 nM
[30] = target: Tyrosine-protein kinase Srms (Homo sapiens) (UniProt Q9H3Y6); conditions: Compound concentration 1000.0 nM
[31] = target: Ribosomal protein S6 kinase alpha-5 (Homo sapiens) (UniProt O75582); conditions: Compound concentration 1000.0 nM
[32] = target: Calcium/calmodulin-dependent protein kinase kinase 2 (Homo sapiens) (UniProt Q96RR4); conditions: Compound concentration 1000.0 nM
[33] = target: Serine/threonine-protein kinase 32A (Homo sapiens) (UniProt Q8WU08); conditions: Compound concentration 1000.0 nM
[34] = target: Serine/threonine-protein kinase PLK4 (Homo sapiens) (UniProt O00444); conditions: Compound concentration 1000.0 nM
[35] = target: Ribosomal protein S6 kinase alpha-6 (Homo sapiens) (UniProt Q9UK32); conditions: Compound concentration 1000.0 nM; remark: listed apart in the source
[36] = target: Calcium/calmodulin-dependent protein kinase type 1D (Homo sapiens) (UniProt Q8IU85); conditions: Compound concentration 1000.0 nM
[37] = target: Serine/threonine-protein kinase D3 (Homo sapiens) (UniProt O94806); conditions: Compound concentration 1000.0 nM
[38] = tested on: Receptor-type tyrosine-protein kinase FLT3 (Homo sapiens), P36888 [UNDEFINED MUTATION]; conditions: Compound concentration 1000.0 nM
[39] = target: Serine/threonine-protein kinase 17A (Homo sapiens) (UniProt Q9UEE5); conditions: Compound concentration 1000.0 nM
[40] = tested on: Phosphatidylinositol 4,5-bisphosphate 3-kinase catalytic subunit alpha isoform (Homo sapiens), P42336 [H1047Y]; conditions: Compound concentration 1000.0 nM
[41] = target: Tyrosine-protein kinase ABL2 (Homo sapiens) (UniProt P42684); conditions: Compound concentration 1000.0 nM
[42] = target: 5-hydroxytryptamine receptor 1E (Homo sapiens) (UniProt P28566); conditions: Compound concentration 10.0 uM
[43] = target: cAMP-dependent protein kinase catalytic subunit PRKX (Homo sapiens) (UniProt P51817); conditions: Compound concentration 1000.0 nM
[44] = target: Mitogen-activated protein kinase kinase kinase 3 (Homo sapiens) (UniProt Q99759); conditions: Compound concentration 1000.0 nM
[45] = target: Mitogen-activated protein kinase 9 (Homo sapiens) (UniProt P45984); conditions: Compound concentration 1000.0 nM
Sequence of Mitogen-activated protein kinase 9 (Homo sapiens) (P45984 whole entry, looked up): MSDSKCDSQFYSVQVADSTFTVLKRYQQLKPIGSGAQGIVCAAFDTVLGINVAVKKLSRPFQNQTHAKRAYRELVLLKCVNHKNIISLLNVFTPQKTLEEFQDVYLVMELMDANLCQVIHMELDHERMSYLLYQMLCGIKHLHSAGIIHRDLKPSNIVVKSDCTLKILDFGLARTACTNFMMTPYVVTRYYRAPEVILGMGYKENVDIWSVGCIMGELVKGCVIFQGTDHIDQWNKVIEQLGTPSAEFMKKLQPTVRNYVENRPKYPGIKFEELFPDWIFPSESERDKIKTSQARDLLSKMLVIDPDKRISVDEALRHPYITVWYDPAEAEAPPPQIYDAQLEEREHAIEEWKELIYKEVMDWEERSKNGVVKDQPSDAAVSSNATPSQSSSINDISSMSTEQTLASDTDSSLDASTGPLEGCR

Sequence of Ribosomal protein S6 kinase alpha-6 (Homo sapiens) (Q9UK32 whole entry): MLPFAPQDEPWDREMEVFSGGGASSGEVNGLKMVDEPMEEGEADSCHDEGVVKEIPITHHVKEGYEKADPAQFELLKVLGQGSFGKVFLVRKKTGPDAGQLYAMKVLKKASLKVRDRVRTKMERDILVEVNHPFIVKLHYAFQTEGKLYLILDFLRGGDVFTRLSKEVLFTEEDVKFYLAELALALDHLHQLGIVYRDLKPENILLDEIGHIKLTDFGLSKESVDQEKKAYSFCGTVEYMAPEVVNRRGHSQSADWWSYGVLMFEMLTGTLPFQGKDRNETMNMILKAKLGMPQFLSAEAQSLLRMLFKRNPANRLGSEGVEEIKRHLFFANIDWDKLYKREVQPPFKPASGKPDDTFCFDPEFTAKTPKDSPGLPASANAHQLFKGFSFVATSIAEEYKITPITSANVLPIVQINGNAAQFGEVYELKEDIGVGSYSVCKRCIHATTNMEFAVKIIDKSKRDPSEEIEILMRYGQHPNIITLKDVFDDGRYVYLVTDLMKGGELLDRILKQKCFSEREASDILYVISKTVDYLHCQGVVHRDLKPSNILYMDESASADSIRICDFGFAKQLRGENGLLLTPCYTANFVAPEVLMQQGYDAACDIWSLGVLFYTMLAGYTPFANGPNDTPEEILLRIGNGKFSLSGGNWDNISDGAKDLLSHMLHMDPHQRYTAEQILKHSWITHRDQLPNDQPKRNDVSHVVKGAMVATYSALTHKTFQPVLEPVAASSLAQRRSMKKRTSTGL
Sequence of Calcium/calmodulin-dependent protein kinase kinase 2 (Homo sapiens) (Q96RR4 2-588 limits assumed): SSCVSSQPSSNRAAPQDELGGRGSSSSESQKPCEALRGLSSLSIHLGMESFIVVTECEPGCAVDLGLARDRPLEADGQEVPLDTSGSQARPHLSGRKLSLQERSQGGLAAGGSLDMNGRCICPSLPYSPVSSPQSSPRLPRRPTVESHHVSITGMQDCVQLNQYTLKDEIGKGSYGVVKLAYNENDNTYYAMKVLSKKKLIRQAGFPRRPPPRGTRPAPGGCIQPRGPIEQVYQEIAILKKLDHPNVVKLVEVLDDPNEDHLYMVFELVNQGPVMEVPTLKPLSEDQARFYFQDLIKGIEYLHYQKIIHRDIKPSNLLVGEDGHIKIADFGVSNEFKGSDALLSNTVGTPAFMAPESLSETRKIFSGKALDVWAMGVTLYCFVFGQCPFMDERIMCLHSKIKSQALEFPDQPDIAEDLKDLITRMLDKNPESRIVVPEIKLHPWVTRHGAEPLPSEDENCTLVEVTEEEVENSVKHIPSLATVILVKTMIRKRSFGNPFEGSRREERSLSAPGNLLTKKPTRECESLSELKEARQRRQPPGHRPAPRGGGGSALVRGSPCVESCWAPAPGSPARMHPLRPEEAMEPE
Sequence of Tyrosine-protein kinase ZAP-70 (Homo sapiens) (P43403 whole entry): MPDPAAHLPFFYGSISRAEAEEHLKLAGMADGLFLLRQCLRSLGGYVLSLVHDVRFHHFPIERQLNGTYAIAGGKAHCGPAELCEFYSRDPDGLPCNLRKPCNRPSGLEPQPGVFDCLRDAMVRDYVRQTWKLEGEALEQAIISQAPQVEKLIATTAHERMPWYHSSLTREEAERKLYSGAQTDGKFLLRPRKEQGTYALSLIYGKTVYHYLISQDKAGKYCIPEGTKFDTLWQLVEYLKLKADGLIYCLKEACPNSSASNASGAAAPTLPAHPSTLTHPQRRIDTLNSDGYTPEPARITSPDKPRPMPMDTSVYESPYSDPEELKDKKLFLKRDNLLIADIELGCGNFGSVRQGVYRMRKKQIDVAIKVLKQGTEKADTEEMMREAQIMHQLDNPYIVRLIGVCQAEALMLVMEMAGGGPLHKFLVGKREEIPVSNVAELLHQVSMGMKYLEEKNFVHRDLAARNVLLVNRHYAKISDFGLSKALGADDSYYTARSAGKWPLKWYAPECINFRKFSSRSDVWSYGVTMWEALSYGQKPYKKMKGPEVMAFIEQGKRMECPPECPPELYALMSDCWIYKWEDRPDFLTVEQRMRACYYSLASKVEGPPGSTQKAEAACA
Sequence of Activin receptor type-1 (Homo sapiens) (Q04771 whole entry): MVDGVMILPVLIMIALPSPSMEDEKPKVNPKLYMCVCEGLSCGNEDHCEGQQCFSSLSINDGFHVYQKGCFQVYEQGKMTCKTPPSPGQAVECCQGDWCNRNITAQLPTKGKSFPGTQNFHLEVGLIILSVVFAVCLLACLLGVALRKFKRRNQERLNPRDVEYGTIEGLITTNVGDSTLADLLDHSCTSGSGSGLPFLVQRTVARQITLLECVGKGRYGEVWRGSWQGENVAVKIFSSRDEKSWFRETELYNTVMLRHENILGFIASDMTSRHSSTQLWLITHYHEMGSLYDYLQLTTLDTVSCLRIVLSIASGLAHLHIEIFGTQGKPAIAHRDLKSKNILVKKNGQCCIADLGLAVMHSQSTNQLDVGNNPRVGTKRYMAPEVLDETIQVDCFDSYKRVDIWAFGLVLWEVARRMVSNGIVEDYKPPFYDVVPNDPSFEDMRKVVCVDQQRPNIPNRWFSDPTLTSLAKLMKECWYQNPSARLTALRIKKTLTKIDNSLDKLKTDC
Sequence of Ephrin type-A receptor 7 (Homo sapiens) (Q15375 28-998 limits assumed): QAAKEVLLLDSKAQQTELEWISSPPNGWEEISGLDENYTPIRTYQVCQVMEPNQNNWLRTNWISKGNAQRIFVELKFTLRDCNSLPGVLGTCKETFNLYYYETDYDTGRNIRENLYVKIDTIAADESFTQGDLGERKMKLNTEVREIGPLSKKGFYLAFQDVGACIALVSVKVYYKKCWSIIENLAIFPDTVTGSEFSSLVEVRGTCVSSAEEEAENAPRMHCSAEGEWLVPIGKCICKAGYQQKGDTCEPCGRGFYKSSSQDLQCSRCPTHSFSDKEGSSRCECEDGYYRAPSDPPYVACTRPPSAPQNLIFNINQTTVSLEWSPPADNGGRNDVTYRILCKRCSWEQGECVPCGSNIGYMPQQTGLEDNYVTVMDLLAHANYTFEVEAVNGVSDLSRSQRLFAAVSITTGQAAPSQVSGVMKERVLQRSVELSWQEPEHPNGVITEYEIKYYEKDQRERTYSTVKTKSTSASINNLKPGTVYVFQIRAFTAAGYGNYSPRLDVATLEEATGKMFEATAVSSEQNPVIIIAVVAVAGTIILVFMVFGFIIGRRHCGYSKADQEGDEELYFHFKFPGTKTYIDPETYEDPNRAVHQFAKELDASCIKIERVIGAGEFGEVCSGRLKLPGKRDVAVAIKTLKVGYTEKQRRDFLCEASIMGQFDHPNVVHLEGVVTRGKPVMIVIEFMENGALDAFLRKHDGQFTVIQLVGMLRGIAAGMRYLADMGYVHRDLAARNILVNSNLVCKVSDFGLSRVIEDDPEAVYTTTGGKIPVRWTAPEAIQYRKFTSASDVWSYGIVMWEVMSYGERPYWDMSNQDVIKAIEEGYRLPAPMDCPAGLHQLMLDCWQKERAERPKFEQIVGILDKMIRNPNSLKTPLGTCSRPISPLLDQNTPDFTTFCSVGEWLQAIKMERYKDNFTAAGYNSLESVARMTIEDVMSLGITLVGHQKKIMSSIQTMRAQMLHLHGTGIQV
Sequence of Calcium/calmodulin-dependent protein kinase type 1B (Homo sapiens) (Q6P2M8 whole entry): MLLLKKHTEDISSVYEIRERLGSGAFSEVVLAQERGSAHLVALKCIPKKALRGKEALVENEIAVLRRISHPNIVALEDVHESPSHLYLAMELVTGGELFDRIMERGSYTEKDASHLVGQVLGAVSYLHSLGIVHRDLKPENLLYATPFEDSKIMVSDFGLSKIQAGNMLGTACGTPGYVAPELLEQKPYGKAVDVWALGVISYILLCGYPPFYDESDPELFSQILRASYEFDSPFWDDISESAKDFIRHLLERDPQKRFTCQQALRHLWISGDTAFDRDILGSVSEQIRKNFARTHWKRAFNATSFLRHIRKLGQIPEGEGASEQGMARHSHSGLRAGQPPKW
Sequence of Serine/threonine-protein kinase 17A (Homo sapiens) (Q9UEE5 whole entry, canonical isoform): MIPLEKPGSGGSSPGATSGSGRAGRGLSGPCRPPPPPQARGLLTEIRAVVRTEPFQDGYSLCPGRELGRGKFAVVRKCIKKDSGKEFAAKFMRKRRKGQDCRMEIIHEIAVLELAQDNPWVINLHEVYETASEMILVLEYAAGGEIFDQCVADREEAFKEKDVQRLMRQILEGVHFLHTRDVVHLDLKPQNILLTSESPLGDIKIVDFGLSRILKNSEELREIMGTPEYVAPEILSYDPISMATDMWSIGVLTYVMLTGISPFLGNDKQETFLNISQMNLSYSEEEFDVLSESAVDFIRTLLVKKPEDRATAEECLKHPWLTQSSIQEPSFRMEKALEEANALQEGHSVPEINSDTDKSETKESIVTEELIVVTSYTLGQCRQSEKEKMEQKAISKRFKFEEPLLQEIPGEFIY
Sequence of Death-associated protein kinase 2 (Homo sapiens) (Q9UIK4 whole entry, looked up): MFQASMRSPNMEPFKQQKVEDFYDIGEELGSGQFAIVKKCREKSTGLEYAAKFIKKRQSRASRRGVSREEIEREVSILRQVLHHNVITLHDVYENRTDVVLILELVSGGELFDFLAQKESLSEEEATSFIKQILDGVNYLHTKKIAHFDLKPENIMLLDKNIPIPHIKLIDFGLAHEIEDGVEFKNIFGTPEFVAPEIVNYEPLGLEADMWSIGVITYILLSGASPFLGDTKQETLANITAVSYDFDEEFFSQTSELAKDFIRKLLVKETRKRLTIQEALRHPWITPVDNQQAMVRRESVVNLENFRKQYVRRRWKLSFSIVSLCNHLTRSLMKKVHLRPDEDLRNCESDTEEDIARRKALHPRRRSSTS

COc1cccc(CNC(=O)c2nc3scc(COCc4ccc(C(=O)O)cc4)c3c(=O)[nH]2)c1 [T-26c]
inactive: residual activity [1] 94.3% | residual activity [2] 99.9% | residual activity [3] 74.2% | residual activity [4] 87.8% | residual activity [5] 100% | residual activity [6] 100% | residual activity [7] 81.1% | residual activity [8] 86.5% | residual activity [9] 90.7% | residual activity [10] 100% | residual activity [11] 100% | residual activity [12] 88% | residual activity [13] 100% | inhibition [14] 9.28% | residual activity [15] 100% | residual activity [16] 65.6% | residual activity [17] 67.1% | residual activity [18] 67.1% | residual activity [19] 83.1% | residual activity [20] 69.5% | residual activity [21] 70.7% | residual activity [22] 85.4% | residual activity [23] 100% | residual activity [24] 93.4% | residual activity [25] 95.6% | residual activity [26] 86.4% | residual activity [27] 83.9% | residual activity [28] 100% | residual activity [29] 100% | residual activity [30] 78.3% | residual activity [31] 98% | residual activity [32] 100% | residual activity [33] 100% | residual activity [34] 83% | residual activity [35] 63.5% | residual activity [36] 100% | residual activity [37] 100% | residual activity [38] 63% | residual activity [39] 73.1% | residual activity [40] 100% | residual activity [41] 82.2% | inhibition [42] -0.179% | residual activity [43] 100% | residual activity [44] 78.9% | residual activity [45] 97.1%

Source: ChEMBL document CHEMBL4507300 (2021)
